Marks after values point to notes of the source that are not given here.
Legend:
Type in all cases: in vivo
[1] = test system: Puccinia recondite f. sp. tritici (the causal agent of wheat leaf rust); experiment: Test A: wheat leaf rust, preventive spray on wheat seedlings, visual disease rating; conditions: wheat leaf rust, preventive spray on wheat seedlings
Outline: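 This was a preventive test: Puccinia recondite f. sp. tritici inoculum was applied one day after compound spray to run-off. Test suspensions were made in 50/50 acetone/water with 250 ppm surfactant, at 200 ppm (800 g/ha equivalent) or 40 ppm. Visual ratings of % disease control relative to controls were made after 24 h of saturated humidity and 7 growth-chamber days, all at 20° C.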

[2] = test system: Botrytis cinerea (the causal agent of tomato Botrytis); experiment: Test C: tomato Botrytis, preventive spray on tomato seedlings, visual disease rating; conditions: tomato Botrytis, preventive spray on tomato seedlings
Outline: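 Preventive test: B. cinerea spore inoculation one day after tomato seedlings were sprayed to run-off with compound suspended in 50/50 acetone–water plus 250 ppm surfactant. Plants held 48 h at 20° C in saturated air, then 3 days at 24° C; visual ratings scored 100 (full control) to 0 versus controls; some entries used 40 ppm.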

[3] = test system: Septoria tritici (the causal agent of wheat leaf blotch); experiment: Test B: wheat leaf blotch, preventive spray on wheat seedlings, visual disease rating; conditions: wheat leaf blotch, preventive spray on wheat seedlings
Outline: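 Preventive test: Septoria tritici spores applied one day after run-off spraying of seedlings (200 ppm equals 800 g/ha; some tests 40 ppm). After 48 h at 24 °C saturated atmosphere and 19 days at 20 °C, disease scored visually as % control relative to untreated plants.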

[4] = test system: Blumeria graminis f. sp. tritici (also known as Erysiphe graminis f. sp. tritici, the causal agent of wheat powdery mildew); experiment: Test D: wheat powdery mildew, preventive spray on wheat seedlings, visual disease rating; conditions: wheat powdery mildew, preventive spray on wheat seedlings
Outline: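 Preventive test: seedlings sprayed to run-off and inoculated with powdery mildew spores one day later. Suspensions were made in 50/50 acetone/water with 250 ppm Trem 014 surfactant (200 ppm equals 800 g/ha). Visual ratings after 8 days at 20 °C give percent disease control versus controls.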

[5] = asterisk: 40 ppm test suspension
[6] = no asterisk (standard test suspension concentration, not 40 ppm)

Compound	Test A rating (100 = 100% disease control, 0 = no disease control relative to the controls) [1, 5]	Test C rating (100 = 100% disease control, 0 = no disease control relative to the controls) [2, 5]	Test B rating (100 = 100% disease control, 0 = no disease control relative to the controls) [3, 5]	Test D rating (100 = 100% disease control, 0 = no disease control relative to the controls) [4, 5]	Test A rating (100 = 100% disease control, 0 = no disease control relative to the controls) [1, 6] [%]	Test C rating (100 = 100% disease control, 0 = no disease control relative to the controls) [2, 6] [%]	Test B rating (100 = 100% disease control, 0 = no disease control relative to the controls) [3, 6] [%]	Test D rating (100 = 100% disease control, 0 = no disease control relative to the controls) [4, 6] [%]
OC(c1ccc(F)cc1F)c1c(Br)ncn1-c1c(F)cccc1F (stereo not shown) [compound 96]	68* %	40* %	100* %	0* %	–	–	–	–
Cc1nc(Cl)n(-c2ccc(F)cc2F)c1C(O)c1ccc(F)cc1Cl (racemic) [compound 35]	–	–	–	–	100	100	100	68
Cc1ncc(C(O)c2ccc(Cl)cc2Cl)n1-c1c(F)cc(Cl)cc1F (stereo not shown) [compound 112]	74* %	0* %	100* %	0* %	–	–	–	–
COc1ccc(C(O)c2cnc(C)n2-c2ccc(F)cc2Br)c(F)c1 (stereo not shown) [compound 303]	74* %	8* %	43* %	0* %	–	–	–	–
COc1ccc(C(O)c2c(Br)nc(C)n2-c2ccc(F)cc2Cl)c(F)c1 (stereo not shown) [compound 302]	100* %	100* %	100* %	64* %	–	–	–	–
COc1ccc(C(O)c2c(Cl)ncn2-c2c(F)cccc2F)c(Cl)c1 (racemic) [compound 260]	–	–	–	–	100	100	100	96
Cc1nc(Cl)n(-c2ccc(F)cc2Cl)c1C(O)c1ccc(F)cc1F (single isomer, unassigned) [compound 28]	–	–	–	–	100	100	100	71
Cc1nc(Cl)n(-c2ccc(F)cc2Cl)c1C(O)c1c(F)cccc1F (stereo not shown) [compound 46]	–	–	–	–	100	100	100	100
Cc1nc(Br)c(C(O)c2c(F)cc(Cl)cc2F)n1-c1ccc(F)cc1Cl (stereo not shown) [compound 362]	–	–	–	–	99	0	85	0
Cc1nc(Cl)c(C(O)c2ccc(F)cc2Cl)n1-c1ccc(F)cc1F (racemic) [compound 241]	100* %	99* %	100* %	21* %	–	–	–	–
COc1ccc(C(O)c2c(Br)nc(C)n2-c2ccc(F)cc2Cl)c(Cl)c1 (racemic) [compound 254]	–	–	–	–	100	100	100	83
COc1ccc(C(O)c2c(Br)ncn2-c2ccc(F)cc2Cl)c(Cl)c1 (stereo not shown) [compound 354]	94* %	0* %	18* %	0* %	–	–	–	–
Cc1cc(F)ccc1C(O)c1c(Br)nc(C)n1-c1c(F)cccc1F (stereo not shown) [compound 88]	–	–	–	–	99	96	100	90
